Experimental data reported in PubChem BioAssay (NCI).
“And” between values parts separate entries of the source, which are not always exact repeats. Identical values can stand only once.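 Dose response: 5 concentrations. Exposure: 48 h. Format: 96-well plates. Endpoint: linear interpolation; highest concentration if not reached. The concentration for 50% growth inhibition is given as GI50. TGI is the concentration that stops growth completely.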

Assays:
Assay in all cases: NCI anticancer screen, dose series, 48 h
A498 renal = system: A498 renal
CCRF-CEM leukemia = system: CCRF-CEM leukemia
NCI-H522 lung = system: NCI-H522 lung
SK-OV-3 ovarian = system: SK-OV-3 ovarian
SNB-19 CNS = system: SNB-19 CNS
UACC-257 melanoma = system: UACC-257 melanoma
UACC-62 melanoma = system: UACC-62 melanoma
NCI/ADR-RES ovarian = system: NCI/ADR-RES ovarian
BT-549 breast = system: BT-549 breast
T-47D breast = system: T-47D breast

Row | Compound | TGI (A498 renal) | GI50 (CCRF-CEM leukemia) | TGI (CCRF-CEM leukemia) [µM] | GI50 (NCI-H522 lung) | TGI (NCI-H522 lung) [µM] | TGI (SK-OV-3 ovarian) [µM] | TGI (SNB-19 CNS) [µM] | GI50 (UACC-257 melanoma) | TGI (UACC-257 melanoma) [µM] | TGI (UACC-62 melanoma) [µM] | TGI (NCI/ADR-RES ovarian) | TGI (BT-549 breast) [µM] | TGI (T-47D breast) [µM] | GI50 (A498 renal) | GI50 (NCI/ADR-RES ovarian) | GI50 (SNB-19 CNS) [µM] | GI50 (UACC-62 melanoma) [µM] | GI50 (SK-OV-3 ovarian) [µM] | GI50 (T-47D breast) [µM]
1 | CSC1CC2C(CC1(C)O)C2(C)C (stereo not given) | > 100 µM | 49.3 µM and > 100 µM | > 100 | 33.8 µM and > 100 µM | > 100 | > 100 | > 100 | 40.8 µM and > 100 µM | > 100 | > 100 |  |  |  |  |  |  |  |  | 
2 | C/C(=C\c1ccccc1)C(=O)CCN1CCOCC1 | > 100 µM |  | > 67.2 |  | 22.3 | > 100 | > 62.1 |  | 30.6 | 32.6 | 50.5 µM |  |  |  |  |  |  |  | 
3 | Nn1c(CCCCCCCCc2nnc(COc3c(O)ccc4ccccc34)n2N)nnc1COc1c(O)ccc2ccccc12 | > 100 µM |  |  |  | > 100 | > 100 | > 100 |  | > 100 | > 100 | > 100 µM | > 100 |  |  |  |  |  |  | 
4 | CCSC1=CC(=O)c2nc3ccccc3c3ccnc1c23 |  |  | > 25.9 |  | 3.78 | > 100 | > 87.1 |  | 4.19 | 4.32 | > 30.1 µM | 26.3 | 78.2 |  |  |  |  |  | 
5 | C=C1C(O)C2(O)OCC34C(CC5C(C)=CC(=O)C(O)C5(C)C23)OC(=O)C(OC(=O)C/C=C(\C)CCCCC)C14 (stereo not given) | 0.00941 µM and 0.057 µM and 0.0255 µM | < 0.001 µM |  | < 0.001 µM |  |  |  | < 0.001 µM |  |  | 4.22 µM and 6.42 µM and 11.5 µM |  | < 0.001 | 0.00249 µM and 0.0223 µM | 0.387 µM and 1.46 µM | < 0.001 | < 0.001 |  | 
6 | COc1ccc(N2C(=O)c3c4c(c5c([nH]c6ncccc65)c3C2=O)CCC(C(C)(C)C)C4)cc1 (stereo not given) |  |  | > 100 |  | > 100 | > 100 | > 100 |  | > 100 | > 100 | > 100 µM | > 100 | > 100 |  |  |  |  |  | 
7 | COc1cc(/C=C/C(=O)O)ccc1C(=O)O/C=C/c1ccccc1 | > 100 µM |  | > 100 |  | > 100 | > 100 | > 100 |  | > 100 | > 100 | > 100 µM |  |  |  |  |  |  |  | 
8 | CC(C)(C)C1=Cc2cc3cc(C(C)(C)C)[nH]c(=O)c3cc2S(=O)(=O)N1 | > 100 µM |  | 56.9 |  | 32.3 | > 100 | > 100 |  | 58.7 | 42 |  |  |  |  |  |  |  |  | 
9 | COc1ccc(CC(CO)NC(=O)OCc2ccccc2)cc1Oc1ccc(CC(CO)NC(=O)OCc2ccccc2)cc1 (stereo not given) | 34.9 µM |  | 66.6 |  | 18.4 | 28.8 | 51.8 |  | 61.4 | 29.5 |  | 32.3 |  |  |  |  |  |  | 
10 | CCOP(=O)(OCC)C1C(CO)OC(n2ccc(=O)[nH]c2=O)C1O (stereo not given) | > 100 µM |  |  |  | > 100 |  | > 100 |  | > 100 | > 100 |  | > 100 | > 100 |  |  |  |  |  | 
11 | C=C(Cl)/C(=C\Cl)CCC(Br)C(C)C (stereo not given) | > 100 µM |  | > 100 |  | 39.9 | > 100 | > 100 |  | > 100 | > 100 | > 100 µM | > 100 |  |  |  |  |  |  | 
12 | CCN(CC)CCNc1ccc2nnn3c4ccc(OC)cc4c(=O)c1c23 | 27 µM |  | 32.7 |  | 19.6 | 34.6 | 25.9 |  | 25.1 | 25.7 |  |  |  |  |  |  |  |  | 
13 | OC[C@@H](O)[C@H]1NC[C@@H](O)[C@H]1O | > 100 µM |  | > 100 |  | > 100 | > 100 | > 100 |  | > 100 | > 100 |  | > 100 |  |  |  |  |  |  | 
14 | Oc1ccc(-c2nnc3sc(-c4ccc(F)cc4)nn23)cc1 |  | 55.7 µM | > 100 | 62 µM | > 100 | > 100 | > 100 | > 100 µM | > 100 | > 100 | > 100 µM |  | > 100 |  | 43.6 µM | 21.3 | 31.8 | 34.9 | 21
15 | O=C(Nc1cccc2cnccc12)c1cc2c(cc1Cl)Sc1nccn1S2(=O)=O |  |  |  |  | 33.2 | 86 | 65.3 |  | 45.1 | 26 | 57.8 µM | 40.2 | 40.8 |  |  |  |  |  | 
16 | c1ccc2c(c1)[nH]c1nc3cc(-c4ccc5nc6c(nc5c4)[nH]c4ccccc46)ccc3nc12 | > 100 µM |  | > 100 |  | 78.4 | > 100 | > 100 |  | > 100 | > 100 |  | > 100 | > 100 |  |  |  |  |  | 
17 | C[n+]1c(-c2ccccc2)cc2/c(=C\c3ccc([N+](=O)[O-])cc3)c3ccccc3n21 | > 100 µM |  | 8.04 |  | 2.8 | 25.4 | > 36.1 |  | > 60.8 | > 73.6 | > 100 µM | 1.67 |  |  |  |  |  |  | 
